In US11110158B2, “Prostate-associated antigens and vaccine-based immunotherapy regimens” (Pfizer Inc., priority 2012, dated 2021):

Columns and labels:
human PSMA = experiment: IFNγ ELISPOT of PBMCs, PSMA DNA electroporation with or without CpG in Chinese cynomolgus macaques, human PSMA peptide pools; assay type: in vivo, cynomolgus macaque; conditions: for animals that failed to produce high responses: intramuscular right after electroporation on day 0; for animals with modestly higher total response to the PSMA peptides: 3 days after DNA electroporation, cynomolgus
Experimental: (§1) Six groups of Chinese cynomolgus macaques, six (#1 to 6) per each test group, were immunized with a plasmid DNA encoding the human PSMA modified antigen (amino acids 15-750 of SEQ ID NO:1) delivered by electroporation. Briefly, all animals received bilateral intramuscular injections of 5 mg of plasmid DNA followed by electroporation (DNA EP) on day 0. Subsequently right after the electroporation, group 2 received bilateral intramuscular injections of 2 mg of CpG mixed with 1 mg Alum in proximity to the DNA injection sites. Group 3 and 4 received bilateral intramuscular injections of 2 mg of CpG delivered without alum in proximity to the DNA injection sites either on day 0 or day 3, respectively. Group 5 received 2 mg of bilateral intradermal injections of CpG delivered in proximity to the vaccine draining inguinal nodes on day 3. Group 6 received bilateral injections of 200 μg of CpG mixed with the DNA solution which was co-electroporated into the muscle on day 0.
Peripheral blood samples were collected from each animal fifteen days after the DNA immunization. Peripheral blood mononuclear cells (PBMCs) were isolated from the blood samples and were subjected to an IFNγELISPOT assay to measure the PSMA specific T cell responses. Briefly, 4e5 PBMCs from individual animals were plated per well with pools of PSMA specific peptides or nonspecific control peptides (human HER2 peptide pool) each at 2 ug/ml in IFNγELISPOT plates. The plates were incubated for 16 hrs at 37° C. and 5% CO2 and washed and developed after incubation as per manufacturer's instruction. The number of IFNγ spot forming cells (SFC) were counted by CTL reader. Each condition was performed in duplicates. […] ND indicates not determined.

rHER2 [1] = experiment: Intracellular cytokine staining, rHER2 DNA vaccine with CpG 7909 or anti-CD40 in BALB/c mice; assay type: in vivo, rat; conditions: FIGS. 41A, 41B; CpG 7909 intradermal after both PMED immunizations, versus PBS
Experimental: (§2) The effect of local administration of immune modulators on the magnitude and quality of antigen specific immune responses induced by a cancer was investigated in BALB/c mice, in which the immune response was assessed by measuring rHER2 specific T cell responses using the IFNγ ELISPOT assay or intracellular cytokine staining assay. Briefly, 4 to 6 female BALB/c mice per group as indicated were immunized with DNA plasmid expression constructs encoding rHER2 antigen sequences (SEQ ID NO:54) by PMED delivery system. The immune modulators, CpG7909 (PF-03512676) and anti-CD40 monoclonal agonistic antibody, were administered locally by intradermal injections in proximity to the vaccine draining inguinal lymph node subsequently after the PMED actuations. Antigen specific T cell responses were measured by IFNγ […]ELISPOT or intracellular cytokine staining assay according to the procedure described below.
The rHer-2 specific polyfunctional (multi-cytokine positive) T cell immune responses were measured from splenocytes or PBMCs isolated from individual animals by ICS assay. […] The total number of antigen specific single, double or triple cytokine positive T cells per total spleen of each animal is calculated by subtracting the rHer-2 specific responses to the irrelevant peptide HBV from the vaccine specific responses and normalized to the total number of splenocytes isolated from the spleen.

rHER2 [2] = experiment: IFNγ ELISPOT, rHER2 DNA vaccine with CpG7909 or anti-CD40 in BALB/c mice; assay type: in vivo, mouse; conditions: FIG. 40; intradermal after PMED; CpG7909 50 g or anti-CD40 100 ug as printed; versus control antibodies; 7 days after PMED
Experimental: as §2, with “The immune modulators, CpG7909 (PF-03512676) and anti-CD40 monoclonal agonistic antibody, were administered locally by intradermal injections in proximity to the vaccine draining inguinal lymph node subsequently after the PMED actuations.” left out
Briefly, each mouse per treatment group (n=4) was immunized with DNA plasmid expression constructs encoding rHER2 antigen sequences (SEQ ID NO:54) by PMED immediately followed by either 100 ug of control rat IgG monoclonal antibody (Bioxcell #BE0089: control mAb) or 50 g CpG7909 or 100 ug of anti-CD40 monoclonal antibody (Bioxcell #BE0016-2: a-CD40 mAb) as indicated. The antigen specific immune responses were measured by IFNγ ELISPOT assay from 5e5 splenocytes mixed with control or rHer-2 specific p66 peptides at 10 µg/ml concentration, 7 days after the PMED actuation. […]

rhesus PSMA = experiment: IFNγ ELISPOT of PBMCs, PSMA DNA electroporation with or without CpG in Chinese cynomolgus macaques, rhesus PSMA peptide pools; assay type: in vivo; conditions: group 6: 200 μg CpG co-electroporated, compared to animals that did not receive CpG (group 1); P<0.05
Experimental: as §1
Peripheral blood samples were collected from each animal fifteen days after the DNA immunization. Peripheral blood mononuclear cells (PBMCs) were isolated from the blood samples and were subjected to an IFNγELISPOT assay to measure the PSMA specific T cell responses. […] The number of IFNγ spot forming cells (SFC) were counted by CTL reader. […] ND indicates not determined.

[3] = cited from earlier work
PC3 = experiment: Antibody-dependent cell-mediated cytotoxicity, chromium 51 release, human PBMC effectors; assay type: cell-based; conditions: target PC3 (PSMA negative); plasma 1:50 or control mAb
Experimental: (§3) An Indian rhesus macaque was immunized with a nucleic acid encoding a human PSMA modified antigen delivered by adenovirus (1e11 V.P. injected intramuscularly) followed by 2 PMED immunizations (8 actuations/immunization, 4 actuations per each right and left side of the lower abdomen) with 8 and 6 week intervals respectively. The animal also received intradermal injections of 3 mg of CpG (PF-03512676) in proximity to each inguinal draining lymph node at the time of the second PMED immunization. The antibody dependent cell-mediated cytotoxicity was determined from the plasma collected from the blood before any immunizations (pre-immune plasma) and 8 days after the last PMED immunization (immune plasma).
(§4) Antibody-dependent cell-mediated cytotoxicity was determined using the standard chromium 51 release assay. Human prostate cancer cell lines LNCaP and PC3 were used as target cells. Freshly isolated human PBMC cells were used as effector cells. Effectors to target cells were set at 30:1. Briefly, for one labeling reaction, 1.5×10^6 target cells in 200 ul were incubated with 200 μCi ^51Cr (37° C., 5% CO2 for 1 hour).

LNCaP = experiment: as above; assay type: cell-based; conditions: target LNCaP (PSMA+); plasma 1:50 or control mAb
Experimental: as §3, §4

Substance | animals that failed to produce high responses (human PSMA; group 2: CpG 2 mg mixed with 1 mg Alum) | animals that failed to produce high responses (human PSMA; group 3: CpG 2 mg without alum) | animals with modestly higher total response to the PSMA peptides (human PSMA; group 4: CpG 2 mg bilateral intramuscular) | animals with modestly higher total response to the PSMA peptides (human PSMA; group 5: CpG 2 mg bilateral intradermal) | animals with higher net responses (human PSMA; group 6: 200 μg CpG co-electroporated with the DNA solution into the muscle) | response to peptide pool H1 (human PSMA; group 6: 200 μg CpG co-electroporated, compared to animals that did not receive CpG (group 1), P<0.05) | rHer-2 specific multi-cytokine positive CD8 and CD4 T cell responses (rHER2 [1]) | magnitude of antigen specific immune responses induced by rHer-2 DNA (IFNγ ELISPOT, p66 peptide) (rHER2 [2]) | response to peptide pool R1 (rhesus PSMA) | single intravenous dose well tolerated with no clinical effects and no significant toxicity ([3]; patients with previously treated chronic lymphocytic leukemia) | dose limiting toxicity ([3]; single dose subcutaneous) | maximum tolerated dose (MTD) ([3]; single dose subcutaneous) [mg/kg] | Percent specific lysis at E:T of 30:1 (PC3) [%] | Percent specific lysis at E:T of 30:1 (LNCaP) [%]
5′ TCGTCGTTTTGTCGTTTTGTCGTT3′ [CpG 7909] | 4/6 | 3/6 | 3/6 | 2/6 | 4/6 | statistically higher response | significant increase | significantly enhanced the magnitude of antigen specific immune responses | statistically higher response | up to 1.05 mg/kg | myalgia and constitutional effects | 0.45 |  | 
Rituxan: monoclonal against B cell antigen (CD20), negative control antibody |  |  |  |  |  |  |  |  |  |  |  |  | 0 | 8.99
